Literature values as cited in US20180284402A1, “TOPICAL ANALGESIC PAIN RELIEF FORMULATIONS, MANUFACTURE AND METHODS OF USE THEREOF” (priority 2016, published 2018).
Read-outs that look alike come from different tables or passages of the source.

Columns and labels:
[1] = molecular target: T1, hTRPA1 (Homo sapiens, UniProt O75762)
[2] = molecular target: human TRPM8 (hTRPM8) (Homo sapiens, UniProt Q7Z2W7); details: Takaishi 2012
[3] = molecular target: hTRPV1 (Homo sapiens, UniProt Q8NER1); details: Takaishi 2012
[4] = molecular target: T2, hTRPV2 (Homo sapiens, UniProt Q9Y5S1); details: Takaishi 2012
T2 sequence (Q9Y5S1 1-764): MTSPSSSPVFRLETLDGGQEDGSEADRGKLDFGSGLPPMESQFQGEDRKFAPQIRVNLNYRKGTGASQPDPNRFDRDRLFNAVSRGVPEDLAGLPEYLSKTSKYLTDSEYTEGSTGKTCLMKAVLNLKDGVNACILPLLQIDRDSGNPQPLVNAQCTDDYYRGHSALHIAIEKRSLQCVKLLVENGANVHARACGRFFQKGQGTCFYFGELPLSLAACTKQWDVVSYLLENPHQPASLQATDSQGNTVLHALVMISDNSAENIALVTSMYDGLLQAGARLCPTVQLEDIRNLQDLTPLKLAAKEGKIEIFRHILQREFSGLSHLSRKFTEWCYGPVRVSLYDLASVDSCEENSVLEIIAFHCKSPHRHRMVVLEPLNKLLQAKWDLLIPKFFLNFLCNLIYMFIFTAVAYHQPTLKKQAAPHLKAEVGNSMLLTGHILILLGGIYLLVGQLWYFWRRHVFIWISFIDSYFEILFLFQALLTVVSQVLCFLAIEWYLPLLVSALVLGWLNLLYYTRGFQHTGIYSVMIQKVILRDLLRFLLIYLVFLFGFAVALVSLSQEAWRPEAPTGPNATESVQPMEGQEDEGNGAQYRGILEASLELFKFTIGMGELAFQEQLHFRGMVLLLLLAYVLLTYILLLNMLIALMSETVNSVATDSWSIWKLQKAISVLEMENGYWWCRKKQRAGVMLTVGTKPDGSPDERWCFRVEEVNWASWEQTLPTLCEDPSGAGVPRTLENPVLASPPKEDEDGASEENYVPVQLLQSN

[5] = molecular target: T1, hTRPA1; details: compound at 1 mM; for inhibition of hTRPA1 activation by allyl isothiocyanate (mustard oil): allyl isothiocyanate at 10 uM; for inhibition of hTRPA1 activation by menthol: menthol at 1 mM
[6] = system: TRPV1; details: Morales-Lazaro 2016
[7] = system: pain and itch responses; details: mice

T1 sequence (O75762 whole entry): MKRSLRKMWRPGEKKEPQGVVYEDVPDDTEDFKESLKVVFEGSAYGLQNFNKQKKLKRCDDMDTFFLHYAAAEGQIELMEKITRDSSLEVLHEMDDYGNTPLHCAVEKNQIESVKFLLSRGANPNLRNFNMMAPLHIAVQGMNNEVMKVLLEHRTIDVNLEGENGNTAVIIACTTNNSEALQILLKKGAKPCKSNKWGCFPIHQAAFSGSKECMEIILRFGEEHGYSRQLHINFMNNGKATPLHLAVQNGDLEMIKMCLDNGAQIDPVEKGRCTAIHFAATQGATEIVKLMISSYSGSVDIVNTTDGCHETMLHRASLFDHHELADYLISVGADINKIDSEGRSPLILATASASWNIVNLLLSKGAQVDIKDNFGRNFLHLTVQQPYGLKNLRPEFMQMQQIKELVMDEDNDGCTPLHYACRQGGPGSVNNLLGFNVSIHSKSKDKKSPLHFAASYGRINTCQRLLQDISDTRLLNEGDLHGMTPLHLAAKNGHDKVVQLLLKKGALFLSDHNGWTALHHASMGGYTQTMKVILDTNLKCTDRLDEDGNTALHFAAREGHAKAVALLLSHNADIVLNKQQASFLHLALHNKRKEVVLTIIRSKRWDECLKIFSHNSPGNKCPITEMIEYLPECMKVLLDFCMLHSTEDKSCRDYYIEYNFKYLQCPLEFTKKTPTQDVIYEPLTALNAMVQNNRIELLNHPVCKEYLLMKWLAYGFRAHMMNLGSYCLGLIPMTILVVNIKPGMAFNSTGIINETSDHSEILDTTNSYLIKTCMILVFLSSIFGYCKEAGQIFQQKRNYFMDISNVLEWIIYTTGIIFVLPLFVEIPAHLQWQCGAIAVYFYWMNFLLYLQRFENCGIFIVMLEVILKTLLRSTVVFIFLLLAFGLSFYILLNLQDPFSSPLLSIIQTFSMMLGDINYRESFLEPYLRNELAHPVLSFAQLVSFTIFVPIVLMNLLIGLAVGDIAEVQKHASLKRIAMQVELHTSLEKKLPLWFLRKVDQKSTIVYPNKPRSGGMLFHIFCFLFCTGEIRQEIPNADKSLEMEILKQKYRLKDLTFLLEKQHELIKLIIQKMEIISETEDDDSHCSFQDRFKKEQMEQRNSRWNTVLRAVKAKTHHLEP
Chain of hTRPV1 (Q8NER1 whole entry): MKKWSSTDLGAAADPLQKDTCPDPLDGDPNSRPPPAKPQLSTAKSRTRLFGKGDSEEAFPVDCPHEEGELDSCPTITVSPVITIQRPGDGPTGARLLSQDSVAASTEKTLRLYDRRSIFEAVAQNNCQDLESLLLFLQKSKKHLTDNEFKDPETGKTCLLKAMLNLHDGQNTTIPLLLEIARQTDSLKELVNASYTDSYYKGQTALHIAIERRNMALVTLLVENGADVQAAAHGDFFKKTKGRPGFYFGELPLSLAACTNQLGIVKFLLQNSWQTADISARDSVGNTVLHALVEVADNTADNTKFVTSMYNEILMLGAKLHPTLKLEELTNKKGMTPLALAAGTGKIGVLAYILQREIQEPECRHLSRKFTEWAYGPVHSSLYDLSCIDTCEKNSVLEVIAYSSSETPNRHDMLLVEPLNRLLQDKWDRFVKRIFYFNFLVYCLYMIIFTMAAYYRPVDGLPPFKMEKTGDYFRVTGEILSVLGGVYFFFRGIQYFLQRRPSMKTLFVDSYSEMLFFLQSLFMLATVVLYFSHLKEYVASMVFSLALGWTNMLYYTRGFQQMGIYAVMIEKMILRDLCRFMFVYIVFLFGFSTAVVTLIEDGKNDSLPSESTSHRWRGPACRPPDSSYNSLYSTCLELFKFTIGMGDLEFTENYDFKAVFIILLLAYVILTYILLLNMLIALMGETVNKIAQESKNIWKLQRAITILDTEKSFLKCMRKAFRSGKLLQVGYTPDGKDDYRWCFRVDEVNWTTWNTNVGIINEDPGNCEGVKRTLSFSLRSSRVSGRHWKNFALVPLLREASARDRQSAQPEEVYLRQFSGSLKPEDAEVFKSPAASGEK
Chain of human TRPM8 (hTRPM8) (Q7Z2W7 whole entry): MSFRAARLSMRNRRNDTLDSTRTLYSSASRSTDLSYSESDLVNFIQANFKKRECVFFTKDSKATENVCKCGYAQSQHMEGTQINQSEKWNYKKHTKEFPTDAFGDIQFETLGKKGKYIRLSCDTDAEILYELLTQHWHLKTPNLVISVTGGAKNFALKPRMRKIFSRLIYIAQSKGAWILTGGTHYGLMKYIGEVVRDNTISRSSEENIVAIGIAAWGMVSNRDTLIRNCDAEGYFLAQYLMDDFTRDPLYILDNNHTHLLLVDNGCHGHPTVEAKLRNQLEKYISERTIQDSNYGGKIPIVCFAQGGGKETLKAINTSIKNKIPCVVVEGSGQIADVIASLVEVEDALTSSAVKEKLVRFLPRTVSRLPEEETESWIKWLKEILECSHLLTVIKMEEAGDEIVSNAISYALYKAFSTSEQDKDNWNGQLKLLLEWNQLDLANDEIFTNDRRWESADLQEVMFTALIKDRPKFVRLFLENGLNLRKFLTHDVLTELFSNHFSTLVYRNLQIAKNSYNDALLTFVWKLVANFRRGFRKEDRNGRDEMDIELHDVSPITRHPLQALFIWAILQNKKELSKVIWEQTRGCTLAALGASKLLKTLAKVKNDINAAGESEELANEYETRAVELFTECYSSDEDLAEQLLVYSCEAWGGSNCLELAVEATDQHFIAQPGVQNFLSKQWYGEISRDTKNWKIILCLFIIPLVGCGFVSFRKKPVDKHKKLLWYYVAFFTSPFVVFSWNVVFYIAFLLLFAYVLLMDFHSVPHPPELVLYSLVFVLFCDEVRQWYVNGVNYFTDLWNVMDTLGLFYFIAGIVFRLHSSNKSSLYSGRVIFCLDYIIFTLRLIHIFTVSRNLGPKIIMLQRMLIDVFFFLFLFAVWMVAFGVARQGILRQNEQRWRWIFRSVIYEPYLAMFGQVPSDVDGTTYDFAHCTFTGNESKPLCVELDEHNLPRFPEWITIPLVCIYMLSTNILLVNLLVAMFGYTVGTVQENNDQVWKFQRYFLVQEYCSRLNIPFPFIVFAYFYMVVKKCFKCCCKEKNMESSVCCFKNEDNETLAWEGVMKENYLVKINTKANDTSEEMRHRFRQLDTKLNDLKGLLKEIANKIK

Structure (SMILES)	activation of hTRPA1 ([1]; Takaishi 2014)	inhibition of hTRPA1 activation by allyl isothiocyanate (mustard oil) [5]	inhibition of hTRPA1 activation by menthol [5]	other results
CC12CCC(CC1)C(C)(C)O2 [1,8-cineole]	did not activate	–	–	activation of hTRPA1 ([1]; Takaishi 2012): without activating; activation of human TRPM8 (hTRPM8) [2]: activates; activation of hTRPV1 [3]: did not activate; activation of hTRPV2 [4]: did not activate
CC1(C)[C@@H]2CC[C@@]1(C)[C@](C)(O)C2 [2-methylosoborneol]	did not activate	completely inhibited	completely inhibited	–
CC1(C)C2CCC1(C)C(O)C2 (stereo not drawn) [borneol]	did not activate	completely inhibited	completely inhibited	–
CC12CCC(CC1=O)C2(C)C (stereo not drawn) [camphor]	did not activate	–	–	–
CC12CCC(C1)C(C)(C)C2O (stereo not drawn) [fenchyl alcohol]	did not activate	completely inhibited	completely inhibited	–
O=C1CC2CC[C@H]1C2 [norcamphor]	did not activate	–	–	–
CCCCCCCC/C=C\CCCCCCCC(=O)O [oleic acid]	–	–	–	TRPV1 activity [6]: inhibited; pain and itch responses [7]: inhibited
